In US10364256B2 (GlaxoSmithKline Intellectual Property Development Limited, priority 2015, dated 2019) one finds EC50 and IC50 data, which are given here for 17 compounds.

Structures are written as SMILES. Read-outs that look alike come from different tables or passages of the source.

The test system of test [1] is NQO1 specific enzyme activity in BEAS-2B cells (marker for NRF2 activation). The experiment in a line: BEAS-2B NQO1 MTT Assay. It counts as cell-based. Conditions: Homo sapiens, compound incubated 48 hours, read-out: EC50 (NQO1 specific enzyme activity induction). The essentials:
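BEAS-2B cells treated with compound for 48 h at 37 °C, then lysed; NQO1 activity in lysates measured kinetically by MTT reduction at A570 over 30 min. pEC50 from 3-parameter fit of ΔOD/min versus log concentration; lysate also taken for Cell Titer Glo.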

For test [2], the target named is T1, Keap1 Kelch domain (321-609) / TAMRA-labeled 16mer NRF2 peptide (ETGE motif) (Homo sapiens, UniProt Q14145).
T1 construct: the Kelch domain (321-609) of Keap1 is used
T1 sequence (Q14145 321-609): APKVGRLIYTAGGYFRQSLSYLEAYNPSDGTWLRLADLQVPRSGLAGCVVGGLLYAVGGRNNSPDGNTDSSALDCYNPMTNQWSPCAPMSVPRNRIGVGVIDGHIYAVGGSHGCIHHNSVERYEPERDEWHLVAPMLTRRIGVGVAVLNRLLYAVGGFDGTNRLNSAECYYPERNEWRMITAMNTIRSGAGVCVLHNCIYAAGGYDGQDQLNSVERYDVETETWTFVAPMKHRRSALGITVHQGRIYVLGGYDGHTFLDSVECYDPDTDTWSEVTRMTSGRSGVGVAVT
Description: NRF2-Keap1 FP Assay (Keap1 Kelch fluorescence polarization). It is filed as binding. To be noted: 20 nM Keap1 (321-609), 8 nM Tamra labeled peptide. The essentials:
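Compound dilutions (3-fold) were incubated 1 hr at room temperature with 20 nM Keap1 Kelch (321-609) and 8 nM TAMRA-labeled ETGE 16mer peptide. Buffer was 50 mM Tris pH 8.0, 100 mM NaCl, 5 mM MgCl2, 1 mM DTT, 2 mM CHAPS, 0.005% BSA. Fluorescence polarization (mP) was normalized to controls and fitted with a four-parameter equation to give pIC50.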

Test [3] has as its target T2, full length Keap1 protein / full length NRF2 protein (Homo sapiens, UniProt Q14145).
T2 construct: full length NRF2 protein and full length Keap1 protein (Keap1 exists a dimer) are used; His
Description: NRF2-Keap1 TR-FRET Assay. It is filed as binding. To be noted: 25 nM Keap1-FlagHis and 50 nM biotin-NRF2 added. The source says: In the NRF2-Keap1 TR-FRET (time-resolved fluorescence resonance energy transfer) assay, full length NRF2 protein and full length Keap1 protein (Keap1 exists a dimer) are used. The assay detects the ability of compound to displace the binding of FlagHis-tagged Keap1 with biotinylated, Avi-tagged NRF2 protein. Biotin-NRF2 binds to streptavidin-europium (a component of the detection mix) and Keap1-FlagHis is recognized by anti-Flag APC (allophycocyanin) antibody (also a component of the detection mix). If binding occurs between the two proteins, there will be an energy transfer from the Eu+3 (donor) at 615 nm to the APC (acceptor) at 665 nm. A potential Keap1 inhibitor will cause a reduction in the TR-FRET signal by interfering with the binding of Keap1 to NRF2.
One hundred nanoliters of 100× compound dose response curves (serial 3-fold dilutions) in DMSO are stamped using an Echo liquid handling system (Labcyte) into 384-well, low volume, black assay plates (Greiner, #784076), with DMSO in columns 6 and 18. The top concentration of compound is located in columns 1 and 13. All reagents are diluted in assay buffer (50 mM Tris, pH 8.0, 5 mM MgCl2, 100 mM NaCl, 0.005% BSA, 1 mM DTT, and 2 mM CHAPS). The BSA, DTT, and CHAPS are added to the assay buffer on the day of assay. Using a Multidrop Combi (Thermo Electron Corporation) equipped with a metal tip dispenser, 5 ul of 25 nM Keap1-FlagHis protein is added to all wells of the compound plate, with the exception of the wells in column 18. Wells in column 18 receive 5 ul of assay buffer instead. Plates are centrifuged at 500 rpm for 1 minute, covered with a plate lid, and incubated at 37° C. for 2.25 hours. Plates are then removed from the incubator and allowed to cool to RT for 15 minutes. Five microliters of 50 nM biotin-NRF2 protein is then added to all wells of the plates and the plates are spun at 500 rpm for 1 minute, followed by incubating at 4° C. for 1.25 hours. The plates are then allowed to warm to RT for 15 minutes, followed by the addition of 10 ul of detection mix (1 nM Streptavidin Eu+ W1024 and 5 ug/ml mouse anti-DYKDDDDK IgG conjugated to SureLight APC antibody; both from Columbia Biosciences) to all wells. Plates are spun at 500 rpm for 1 minute, incubated for 1 hour at RT, and read on an Envision plate reader using a 320 nm excitation filter and 615 nm and 665 nm emission filters. Compound response (% inhibition) and potency (pIC50) are calculated based on the ratio of the two emissions (665 nm/615 nm) and then the transformed data is normalized against controls in the assay (control 1=1% DMSO in the presence of NRF2 and Keap1 protein and control 2=1% DMSO in the absence of protein). Data analysis is handled using the software package Abase XE (Surrey, United Kingdom). The % inhibition values are calculated from the ratio (transformed) data by the equation: 100−(100*(compound response−average control 2)/(average control 1−average control2)). For calculation of pIC50s, Abase XE uses a four parameter equation. pIC50 is the negative log of the IC50.
For orientation: Time-resolved FRET reads energy transfer from a long-lived donor to a nearby acceptor.

T2 sequence (Q14145 whole entry): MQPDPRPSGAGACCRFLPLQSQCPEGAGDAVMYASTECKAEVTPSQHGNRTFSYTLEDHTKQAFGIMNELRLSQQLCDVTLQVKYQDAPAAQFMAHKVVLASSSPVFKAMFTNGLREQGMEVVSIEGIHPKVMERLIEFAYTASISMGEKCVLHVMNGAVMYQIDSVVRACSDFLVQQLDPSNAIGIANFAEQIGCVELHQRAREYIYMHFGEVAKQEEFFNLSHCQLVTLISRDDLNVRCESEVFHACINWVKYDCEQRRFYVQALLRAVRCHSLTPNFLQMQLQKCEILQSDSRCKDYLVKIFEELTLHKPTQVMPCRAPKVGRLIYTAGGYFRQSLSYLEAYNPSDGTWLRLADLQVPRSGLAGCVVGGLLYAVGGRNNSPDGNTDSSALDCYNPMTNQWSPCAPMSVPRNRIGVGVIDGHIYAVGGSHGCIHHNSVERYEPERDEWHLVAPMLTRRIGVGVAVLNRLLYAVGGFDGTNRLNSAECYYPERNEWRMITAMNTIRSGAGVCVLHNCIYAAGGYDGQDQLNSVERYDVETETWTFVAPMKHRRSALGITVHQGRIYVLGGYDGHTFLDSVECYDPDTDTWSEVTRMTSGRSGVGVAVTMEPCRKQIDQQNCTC

Broadly, the EC50 is the concentration giving half of the maximal effect. What is called IC50 is the concentration that gives 50% inhibition. Turning to `O=C(O)c1cnn(-c2cccc(-c3cccc(C(=O)N4CCOC5(CCCC5)C4)c3F)c2)c1C1CC1` [Example 44, 5-cyclopropyl-1-[3-(2-fluoro-3-{6-oxa-9-azaspiro[4.5]decane-9-carbonyl}phenyl)phenyl]-1H-pyrazole-4-carboxylic Acid], in test [1], the 50% effective concentration (EC50) lay in the range of 1000 to 10000 nM. Further, the IC50 lay within 10 to 100 nM in test [2] and 100 to 1000 nM in test [3].
On to `CC(=O)N1CCC(c2c(C(=O)O)cnn2-c2cccc(-c3cccc(C(=O)N(C)C)c3)c2)CC1` [Example 46], for which the EC50 in test [1] was 1000 to 10000 nM. Moreover, the half-maximal inhibitory concentration (IC50) is 1000 to 10000 nM in test [2] and 10000 to 100000 nM in test [3].
As to `CN(CC1CC1)C(=O)c1cccc(-c2cccc(-n3ncc(C(=O)O)c3C(F)(F)F)c2)c1F` [Example 47, 1-(3-{3-[(cyclopropylmethyl)(methyl)carbamoyl]-2-fluorophenyl}phenyl)-5-(trifluoromethyl)-1H-pyrazole-4-carboxylic Acid], the EC50 in test [1] fell in the range of 1000 to 10000 nM. The IC50 in test [2] is 100 to 1000 nM; in test [3], 1000 to 10000 nM.
Take `CN(CC1CC1)C(=O)c1cccc(-c2cccc(-n3ncc(C(=O)O)c3C3CC3)c2)c1F` [Example 48, 5-cyclopropyl-1-(3-{3-[(cyclopropylmethyl)(methyl)carbamoyl]-2-fluorophenyl}phenyl)-1H-pyrazole-4-carboxylic Acid]: the EC50 in test [1] was 1000 to 10000 nM. Also, the IC50 is 100 to 1000 nM in test [2] and 1000 to 10000 nM in test [3].
On to `CN(C)C(=O)c1cccc(-c2cccc(-n3ncc(C(=O)O)c3C3CC(c4ccccc4)C3)c2)c1` (stereo not drawn) [Example 49, 1-{3-[3-(dimethylcarbamoyl)phenyl]phenyl}-5-(3-phenylcyclobutyl)-1H-pyrazole-4-carboxylic Acid], for which the EC50 in test [1] is 1000 to 10000 nM. For the same compound, the IC50 in test [2] was in the range of 100 to 1000 nM; in test [3], 10000 to 100000 nM.
Taken in the same sequence, the figures for `O=C(O)c1cnn(-c2cccc(-c3cccc(C4CCCO4)c3)c2)c1C1CC1` (stereo not drawn) [Example 50, 5-Cyclopropyl-1-[3′-(tetrahydro-furan-2-yl)-biphenyl-3-yl]-1H-pyrazole-4-carboxylic Acid] were 1000 to 10000 nM, 1000 to 10000 nM and above 100000 nM.
On to `CCCC1CCCCN1C(=O)c1cccc(-c2cccc(-n3ncc(C(=O)O)c3C3CC3c3cccnc3)c2)c1` (stereo not drawn) [Example 52, 1-{3-[3-(2-propylpiperidine-1-carbonyl)phenyl]phenyl}-5-[2-(pyridin-3-yl)cyclopropyl]-1H-pyrazole-4-carboxylic Acid], for which the concentration for a half-maximal effect (EC50) in test [1] (BEAS-2B, 48 h) lay within 1000 to 10000 nM. Besides, the figures for the half-maximal inhibitory concentration (IC50) in test [2] and in test [3] were 100 to 1000 nM and 1000 to 10000 nM, respectively.
For the compound `CCCC1CCCCN1C(=O)c1cccc(-c2cccc(-n3ncc(C(=O)O)c3CCc3cn(C)nn3)c2)c1F` (stereo not drawn) [Example 56, 1-(2′-Fluoro-3′-(2-propylpiperidine-1-carbonyl)-[1,1′-biphenyl]-3-yl)-5-(2-(1-methyl-1H-1,2,3-triazol-4-yl)ethyl)-1H-pyrazole-4-carboxylic Acid], the concentration for a half-maximal effect (EC50) in test [1] was 1000 to 10000 nM. For the same compound, the IC50 fell in the range of 10 to 100 nM in test [2] and 100 to 1000 nM in test [3].
As to `CCC[C@@H]1CCCCN1C(=O)c1cccc(-c2cccc(-n3ncc(C(=O)O)c3CCc3cn(C)nn3)c2)c1` [Example 58, (R)-5-(2-(1-Methyl-1H-1,2,3-triazol-4-yl)ethyl)-1-(3′-(2-propylpiperidine-1-carbonyl)-[1,1′-biphenyl]-3-yl)-1H-pyrazole-4-carboxylic Acid], in test [1] (BEAS-2B, 48 h), the EC50 was in the range of 1000 to 10000 nM. The half-inhibitory concentration (IC50) in test [2] fell in the range of 10 to 100 nM; in test [3], 100 to 1000 nM.
With `CC(Oc1cccc(-c2cccc(-n3ncc(C(=O)O)c3C3CC3)c2)c1)C1CCCCC1` (stereo not drawn) [Example 60, 1-(3′-(1-Cyclohexylethoxy)-[1,1′-biphenyl]-3-yl)-5-cyclopropyl-1H-pyrazole-4-carboxylic Acid], the EC50 in test [1] lay in the range of 1000 to 10000 nM. Also, the values for the IC50 in test [2] and in test [3] were 1000 to 10000 nM and 10000 to 100000 nM, respectively.
Take `CC(C)Oc1cccc(-c2cccc(-n3ncc(C(=O)O)c3C(F)(F)F)n2)c1` [Example 66, 1-(6-(3-Isopropoxyphenyl)pyridin-2-yl)-5-(trifluoromethyl)-1H-pyrazole-4-carboxylic Acid]: the EC50 in test [1] was 1000 to 10000 nM. In addition, the half-inhibitory concentration (IC50) is 1000 to 10000 nM in test [2] and above 100000 nM in test [3].
As to `Cn1cc(CCc2c(C(=O)O)cnn2-c2cccc(-c3cccc(OCC4CCCCC4)c3)c2)nn1` [Example 151, 1-(3-(Cyclohexylmethoxy)-[1,1′-biphenyl]-3-yl)-5-(2-(1-methyl-1H-1,2,3-triazol-4-yl)ethyl)-1H-pyrazole-4-carboxylic acid], the half-maximal effective concentration (EC50) in test [1] is 1000 to 10000 nM. Further, the results for the 50% inhibitory concentration (IC50) in test [2] and in test [3] were 1000 to 10000 nM and 10000 to 100000 nM, respectively.
As for `Cn1cc(CCCCOc2cccc(-c3cccc(-n4ncc(C(=O)O)c4C4CC4)c3)c2)nn1` [Example 153, 5-Cyclopropyl-1-(3′-(4-(1-methyl-1H-1,2,3-triazol-4-yl)butoxy)-[1,1′-biphenyl]-3-yl)-1H-pyrazole-4-carboxylic Acid], in test [1], the EC50 was in the range of 1000 to 10000 nM. Also, the values for the IC50 in test [2] and in test [3] were 1000 to 10000 nM and 10000 to 100000 nM, respectively.
`CCn1cc(C2CC2c2c(C(=O)O)cnn2-c2cccc(-c3cccc(C(=O)N(C)C)c3)c2)nn1` (stereo not drawn) [Example 158, 1-(3′-(dimethylcarbamoyl)-[1,1′-biphenyl]-3-yl)-5-(2-(1-ethyl-1H-1,2,3-triazol-4-yl)cyclopropyl)-1H-pyrazole-4-carboxylic Acid]: the concentration giving a half-maximal response (EC50) in test [1] fell in the range of 1000 to 10000 nM. Further, the half-maximal inhibitory concentration (IC50) in test [2] was in the range of 100 to 1000 nM; in test [3], 1000 to 10000 nM.
`CCC[C@@H]1CCCCN1C(=O)c1cccc(-c2cccc(-n3ncc(C(=O)O)c3C3CC3c3cnoc3C)c2)c1` (stereo partly drawn) [Example 159, 5-(2-(5-Methylisoxazol-4-yl)cyclopropyl)-1-(3′-((R)-2-propylpiperidine-1-carbonyl)-[1,1′-biphenyl]-3-yl)-1H-pyrazole-4-carboxylic Acid]: the EC50 in test [1] (BEAS-2B, 48 h) was in the range of 100 to 1000 nM. Also, the IC50 in test [2] and in test [3] was 10 to 100 nM each time.
For `Cn1cc(C2CC2c2c(C(=O)O)cnn2-c2cccc(-c3cccc(OC(C)(C)C)c3)c2)nn1` (stereo not drawn) [Example 166, 1-(3′-(tert-Butoxy)-[1,1′-biphenyl]-3-yl)-5-(2-(1-methyl-1H-1,2,3-triazol-4-yl)cyclopropyl)-1H-pyrazole-4-carboxylic acid], the EC50 in test [1] was 100 to 1000 nM. Besides, the results for the 50% inhibitory concentration (IC50) in test [2] and in test [3] were 10 to 100 nM and 100 to 1000 nM, respectively.
With `COCCC(COc1cccc(-c2cccc(-n3ncc(C(=O)O)c3C3CC3c3cn(C)nn3)c2)c1)C1CCCCC1` (stereo not drawn) [Example 168, 1-(3′-(2-Cyclohexyl-4-methoxybutoxy)-[1,1′-biphenyl]-3-yl)-5-(2-(1-methyl-1H-1,2,3-triazol-4-yl)cyclopropyl)-1H-pyrazole-4-carboxylic acid], in test [1], the EC50 was in the range of 10 to 100 nM. Further, the IC50 was in the range of 10 to 100 nM in test [2] and 100 to 1000 nM in test [3].
